The results in this text go back to patent US9421157B2, “Use of C-glycoside derivatives as pro-desquamating active agents” (L'OREAL, priority 2006, dated 2016).

The assay deals with corneodesmosine. Description: Desquamating activity: immunodetection of corneodesmosine on varnish strippings of dry skin after incubation with product. To be noted: 7% by weight in Arlacel/Myrj base, 5 days at 37° C., 70% relative humidity. The assay is classed as biochemical. How it is done: In this test, corneodesmosine is sought by immunodetection after incubation. Corneodesmosine is one of the key markers of desquamation of […]. It is studied on an immunoblot after electrophoresis separation and transfer onto a membrane.
3×3.5 cm rectangles are cut out of varnish strippings performed on the calf area of legs bearing dry skin. They are each treated with 42 mg of product (4 mg/cm^2). Controls and tests are performed in parallel. A blank without product is prepared under the same conditions.
The tests are incubated at 37° C. and 70% relative humidity for 5 days. The controls are stored for 5 days at −20° C. Thus, 5 tests and 5 controls are obtained.
For each of the samples, acetone powders are prepared and weighed out. The proteins are extracted with 100 μl/mg of whole Laemmli buffer. They are assayed according to the Bradford method. The protein content of each sample is adjusted and allows a direct comparison of the various samples. The proteins are separated by SDS-Page electrophoresis on 12% acrylamide gel.
After transferring the proteins onto a PVDF membrane, the immunodetection is performed with the anticorneodesmosine antibody G3619 (Guy Serre) at 1/12500 according to a standard western blot technique. Revelation is performed by chemiluminescence. The bands detected by the Fluor Smax machine (Biorad) are quantified with the quantity-one software (Biorad).

For `CC(O)C[C@@H]1OC[C@@H](O)[C@H](O)[C@H]1O` (stereo partly drawn) [C-β-D-xylopyranoside-2-hydroxypropane], the “degradation of corneodesmosine (result in words)” value is reported as “positive effect”.

`OCC(O)CO` [Glycerol]: the “degradation of corneodesmosine (result in words)” value is reported as “substantial degradation of corneodesmosine”.
